Experimental data: patent US8785477B2, “Hexahydropyrrolo[3,4-b]pyrrole derivatives, preparation methods and pharmaceutical uses thereof” (Shanghai Sun-Sail Pharmaceutical Science & Technology Co., …, priority 2010, dated 2014)
Structures can show the parent of a compound that is named as a salt. Where two headings read alike, the source gives them in different places.

Assays:
DPPIV [1] = target: T1, DPPIV (Homo sapiens (Human), UniProt P27487); assay: DPP-IV-inhibiting activity, fluorescence assay with Ala-Pro-AMC substrate; assay type: biochemical; conditions: pH7.5, 37° C.
Description: Determination of DPP-IV-inhibiting activity could be performed by common methods. DPP-IV was pure enzyme expressed by using baculovirus expressing system and purified. […] The reaction system was carried out in buffer of pH7.5 and the substrate was alanine-proline-7-amino-4-methylcoumarin (Ala-Pro-AMC).
DPP-IV could degradate substrate Ala-Pro-AMC to give product AMC. […] The DPP-IV activity could be determined by dynamic detecting the increasing speed of fluorescence value at 460 nm.
Thoroughly mixed test compounds, enzyme and reaction buffer, preincubated the mixture for 15 minutes at 37° C. and then primed reaction by adding substrate, successfully detecting fluorescence value at 460 nm for 5 minutes. […] All final reaction volumes were 100 μL. Each concentration of each sample consisted of parallel wells in triplate.
Firstly, calculated the increment of fluorescence intensity per unit time during the initial speed of enzyme (unit: RFU/sec) which can be used to express initial speed, then calculated activity percentage of sample in each concentration group as follows: Activity %=vsample/vDMSO*100%
Wherein, vsample represents initial speed of sample in each concentration group, vDMSO represents initial speed of DMSO group.
Logarithm concentration was plotted versus activity percentage, and then calculated fitting curve by nonlinear regression from which IC50 value was calculated.

FAP = FAP (Homo sapiens (Human), UniProt Q12884); assay: Selectivity panel, recombinant dipeptidase inhibition (fluorescence substrate): FAP; assay type: biochemical
Text: (§1) The recombinant proteins of DPPIV, DPP8, DPP9 and FAP were expressed by using insect expression system (purchased from Shanghai Jinmai Biotechnology Co. Ltd). The activities of these […] were detected by using fluorescence substrate.

[2] = In vivo pharmacokinetic study in rats (gavage); parameters: species or system SD rats; conditions: 20 mg/kg gavage
Description: 12 healthy, male SD rats with 200-220 g body weight were assigned randomly to 3 groups (4 in each group), particular assignment was shown in the table below:
Rats were fasted for 12 h before test with free access to water and uniformly fed at 2 h after administration.
Time points of blood collecting and samples treatment: 0.3 mL blood was drawn through mice post-glomus venous plexus at 0.25, 0.5, 1.0, 2.0, 3.0, 4.0, 5.0, 7.0, 9.0 and 24 hours post-administration, placed in heparinized test tube, centrifuged at 3000 rpm/min for 10 minutes, separated plasma, frozen in refrigerator at −20° C. Unchanged drug concentration in plasma was determined by liquid chromatography-tandem mass spectrometry method.

DPPIV [3] = target: T1, DPPIV; assay: Selectivity panel, recombinant dipeptidase inhibition (fluorescence substrate): DPPIV; assay type: biochemical
Text: as §1

normal ICR mice = assay: In vivo glucose-decreasing activity, oral glucose load in normal mice; conditions: 3.0 mg/kg gavage; for AUC (area under curve of blood glucose): glucose load 60 min post-administration, x ± s
Description: 70 male clean-grade ICR mice with 20.0-24.0 g body weight were provided by Experimental Animal Center of Zhejiang University. Production license number of experimental animal: SCXK[zhe]2007-0039; Use license number of experimental animal: SYXK(zhe)2007-0098.
Feeding condition for animals: met the requirement for experimental facility of SPF grade animals, temperature at 20-25° C., humidity of 0-70%, illuminating condition was alternately 12 hours of brightness and 12 hours of darkness, ventilation rate was 10-20 times per hour, free access to water (city drinking water), illumination was 12 h/12 h of alternating light and dark at day and night respectively.
50 male clean-grade mice passing quarantine with 20.0-24.0 g body weight were randomly divided into 5 groups which included solvent control group, model group, compound dose group (3.0 mg/kg) respectively, 10 per group.
Mice in each group were fasted for 12 hours and then 0.08 mL blood was drawn by cutting tail. Serum was collected and used to determinating fasting blood glucose value. After drawing blood, mice in each dose group were administrated by gavage with different drug solution of corresponding dose and mice in solvent control and model group were administrated with distilled water of equal volume, wherein administration volume was 0.2 mL/10 g. 0.08 mL blood was drawn from each group at 60 minutes post-administration to determine the blood glucose value at 60 minutes post-administration. After drawing blood, […] glucose was administrated by gavage to each group except for solvent control group, wherein administration volume was 0.2 mL/10 g, and then blood was drawn at 20 min, 40 min, 60 min, 120 min after administration of glucose respectively, blood was centrifugated at 6000 rpm for 10 min to separate serum for determining the blood glucose value at each time point, area under curve of blood glucose was calculated on the basis of blood glucose concentration.

DPP9 = DPP9 (Homo sapiens (Human), UniProt Q86TI2); assay: Selectivity panel, recombinant dipeptidase inhibition (fluorescence substrate): DPP9; assay type: biochemical; conditions: for Selective ratio DPP9/DPPIV: ratio of IC50 values; for IC50: recombinant DPP9
Text: as §1

DPP8 = DPP8 (Homo sapiens (Human), UniProt Q6V1X1); assay: Selectivity panel, recombinant dipeptidase inhibition (fluorescence substrate): DPP8; assay type: biochemical; conditions: for Selective ratio DPP8/DPPIV: ratio of IC50 values; for IC50: recombinant DPP8
Text: as §1

[4] = male, SD, rat, plasma, po, read-out: Cmax
[5] = male, SD, rat, plasma, po, read-out: Tmax

T1 sequence (P27487 whole entry): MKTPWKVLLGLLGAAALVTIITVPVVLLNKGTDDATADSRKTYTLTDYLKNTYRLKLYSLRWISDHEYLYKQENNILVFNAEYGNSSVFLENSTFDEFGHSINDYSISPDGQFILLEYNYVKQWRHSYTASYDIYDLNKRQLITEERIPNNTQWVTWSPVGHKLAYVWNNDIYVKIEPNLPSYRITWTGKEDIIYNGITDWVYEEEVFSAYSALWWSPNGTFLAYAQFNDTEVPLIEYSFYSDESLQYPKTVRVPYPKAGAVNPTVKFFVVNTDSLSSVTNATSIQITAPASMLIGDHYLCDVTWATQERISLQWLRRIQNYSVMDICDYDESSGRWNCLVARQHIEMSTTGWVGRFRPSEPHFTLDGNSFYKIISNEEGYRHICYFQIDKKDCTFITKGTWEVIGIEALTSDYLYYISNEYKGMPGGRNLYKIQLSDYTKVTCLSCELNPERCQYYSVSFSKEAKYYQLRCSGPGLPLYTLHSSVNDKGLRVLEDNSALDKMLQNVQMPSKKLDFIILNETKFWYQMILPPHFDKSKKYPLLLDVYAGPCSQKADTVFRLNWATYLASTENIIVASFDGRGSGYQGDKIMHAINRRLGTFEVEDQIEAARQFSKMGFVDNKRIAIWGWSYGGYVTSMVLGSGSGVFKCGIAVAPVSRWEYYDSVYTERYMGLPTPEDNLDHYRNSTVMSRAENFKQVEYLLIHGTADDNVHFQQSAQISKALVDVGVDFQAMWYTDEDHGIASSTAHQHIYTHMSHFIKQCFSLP
Sequence of DPP8 (Q6V1X1 whole entry): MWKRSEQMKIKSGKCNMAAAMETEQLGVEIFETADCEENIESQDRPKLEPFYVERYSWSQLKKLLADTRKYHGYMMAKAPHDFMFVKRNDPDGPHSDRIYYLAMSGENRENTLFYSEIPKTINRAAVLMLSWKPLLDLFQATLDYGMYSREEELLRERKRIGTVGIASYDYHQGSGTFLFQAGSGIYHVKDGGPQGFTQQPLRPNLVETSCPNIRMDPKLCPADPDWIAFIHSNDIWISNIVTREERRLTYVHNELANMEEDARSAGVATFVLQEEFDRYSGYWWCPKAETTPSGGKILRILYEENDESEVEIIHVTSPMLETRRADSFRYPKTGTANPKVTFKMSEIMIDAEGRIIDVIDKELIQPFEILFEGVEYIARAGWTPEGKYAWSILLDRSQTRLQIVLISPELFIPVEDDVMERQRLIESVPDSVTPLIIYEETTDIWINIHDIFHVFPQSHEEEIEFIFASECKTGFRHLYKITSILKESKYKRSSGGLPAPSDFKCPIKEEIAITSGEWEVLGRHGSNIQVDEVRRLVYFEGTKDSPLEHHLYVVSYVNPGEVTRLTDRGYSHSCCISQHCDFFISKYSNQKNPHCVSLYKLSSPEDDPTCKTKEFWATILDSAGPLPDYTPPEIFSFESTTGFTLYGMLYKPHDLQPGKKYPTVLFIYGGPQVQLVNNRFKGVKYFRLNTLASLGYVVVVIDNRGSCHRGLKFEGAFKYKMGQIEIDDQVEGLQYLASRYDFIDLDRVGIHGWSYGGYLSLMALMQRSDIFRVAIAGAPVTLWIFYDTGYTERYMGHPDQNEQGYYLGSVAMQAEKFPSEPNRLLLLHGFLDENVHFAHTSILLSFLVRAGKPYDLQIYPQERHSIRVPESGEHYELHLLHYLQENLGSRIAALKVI
Sequence of DPP9 (Q86TI2 whole entry): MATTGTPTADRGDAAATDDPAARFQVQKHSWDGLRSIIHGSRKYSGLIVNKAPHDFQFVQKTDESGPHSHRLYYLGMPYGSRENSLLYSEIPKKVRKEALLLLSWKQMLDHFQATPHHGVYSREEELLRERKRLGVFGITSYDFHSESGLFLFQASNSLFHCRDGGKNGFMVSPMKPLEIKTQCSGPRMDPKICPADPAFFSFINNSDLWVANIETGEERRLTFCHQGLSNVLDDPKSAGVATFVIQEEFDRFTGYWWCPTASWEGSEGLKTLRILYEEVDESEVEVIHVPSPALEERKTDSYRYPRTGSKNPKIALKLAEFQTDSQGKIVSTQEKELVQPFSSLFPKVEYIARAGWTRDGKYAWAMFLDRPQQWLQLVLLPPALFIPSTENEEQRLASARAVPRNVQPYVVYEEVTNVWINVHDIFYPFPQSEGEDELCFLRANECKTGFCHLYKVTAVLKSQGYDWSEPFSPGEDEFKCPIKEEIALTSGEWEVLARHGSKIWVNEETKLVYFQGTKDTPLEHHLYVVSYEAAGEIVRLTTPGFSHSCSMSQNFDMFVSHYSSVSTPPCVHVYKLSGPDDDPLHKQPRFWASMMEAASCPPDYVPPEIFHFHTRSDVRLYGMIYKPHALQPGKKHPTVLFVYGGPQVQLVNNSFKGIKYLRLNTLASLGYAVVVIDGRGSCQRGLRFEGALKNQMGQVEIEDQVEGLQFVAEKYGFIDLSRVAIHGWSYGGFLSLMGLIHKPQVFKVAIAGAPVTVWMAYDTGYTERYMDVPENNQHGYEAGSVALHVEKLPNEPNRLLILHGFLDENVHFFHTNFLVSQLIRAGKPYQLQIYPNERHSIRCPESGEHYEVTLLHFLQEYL
Sequence of FAP (Q12884 whole entry): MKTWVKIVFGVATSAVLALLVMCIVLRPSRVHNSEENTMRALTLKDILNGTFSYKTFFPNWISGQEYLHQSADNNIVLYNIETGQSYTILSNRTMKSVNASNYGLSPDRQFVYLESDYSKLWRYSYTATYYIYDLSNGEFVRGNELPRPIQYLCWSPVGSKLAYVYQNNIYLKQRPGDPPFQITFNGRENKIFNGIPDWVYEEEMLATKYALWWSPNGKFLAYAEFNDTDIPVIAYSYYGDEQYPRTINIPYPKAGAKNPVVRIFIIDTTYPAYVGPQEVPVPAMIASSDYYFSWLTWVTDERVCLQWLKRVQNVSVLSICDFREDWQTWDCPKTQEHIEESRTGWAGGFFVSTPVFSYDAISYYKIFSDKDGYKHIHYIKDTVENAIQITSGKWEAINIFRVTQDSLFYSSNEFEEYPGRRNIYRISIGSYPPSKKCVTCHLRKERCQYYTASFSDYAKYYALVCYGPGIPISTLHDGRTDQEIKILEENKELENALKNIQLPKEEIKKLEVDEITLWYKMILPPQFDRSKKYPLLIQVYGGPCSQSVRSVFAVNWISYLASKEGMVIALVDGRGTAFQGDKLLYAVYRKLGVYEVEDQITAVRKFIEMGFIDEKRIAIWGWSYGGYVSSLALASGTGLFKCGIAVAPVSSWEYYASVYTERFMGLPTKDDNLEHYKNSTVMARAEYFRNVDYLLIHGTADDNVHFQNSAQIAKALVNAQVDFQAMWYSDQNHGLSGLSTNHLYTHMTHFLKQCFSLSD

Row | SMILES | IC50 (DPPIV [1]) | IC50 (FAP) | AUC0−t [2] | IC50 (DPPIV [3]) | inhibition rate (blood glucose AUC) (normal ICR mice) | AUC (area under curve of blood glucose) (normal ICR mice) | Selective ratio DPP9/DPPIV (DPP9) | IC50 (DPP9) | Selective ratio DPP8/DPPIV (DPP8) | IC50 (DPP8) | other results
1 | CN1C[C@@H]2CCN(C(=O)C[C@H](N)Cc3cc(F)c(F)cc3F)[C@@H]2C1 [Compound 1, (R)-3-amino-1-((3aS,6aS)-hexahydro-5-methylpyrrolo[3,4-b]pyrrol-1(2H)-yl)-4-(2,4,5-trifluorophenyl)butan-1-one fumarate] | 22.8 ± 1.99 nM |  |  |  |  |  |  |  |  |  | 
2 | CN(C)C(=O)N1C[C@@H]2CCN(C(=O)C[C@H](N)Cc3cc(F)c(F)cc3F)[C@@H]2C1 [Compound 3, (R)-3-amino-1-((3aS,6aS)-5-(N,N-dimethylaminoformyl)-hexahydropyrrolo[3,4-b]pyrrol-1(2H)-yl)-4-(2,4,5-trifluorophenyl)butane-1-one fumarate] | 17.7 ± 3.77 nM |  |  |  |  |  |  |  |  |  | 
3 | CC(C)(F)C(=O)N1C[C@@H]2CCN(C(=O)C[C@H](N)Cc3cc(F)c(F)cc3F)[C@@H]2C1 [Compound 8, (R)-3-amino-1-((3aS,6aS)-5-(2-fluoro-2-methylpropionyl)-hexahydropyrrolo[3,4-b]pyrrol-1(2H)-yl)-4-(2,4,5-trifluorophenyl)butan-1-onefumarate] | 11.2 ± 3.76 nM | 13500 ± 280 nM | 2921 ngh/mL | 11 nM | 63.0% | 129 ± 41 mmol·min/L | 322 | 3550 ± 1020 nM | 1602 | 17600 ± 3610 nM | half-life ([2]; male, SD, rat, plasma, po): 2.29 h; Cmax [2, 4]: 933 ng/mL; Tmax [2, 5]: 1 h
4 | N[C@@H](CC(=O)N1CC[C@H]2CN(C(=O)C3CC3)C[C@H]21)Cc1cc(F)c(F)cc1F [Compound 12, (R)-3-amino-1-((3aS,6aS)-5-(cyclopropylcarbonyl)-hexahydropyrrolo[3,4-b]pyrrol-1(2H)-yl)-4-(2,4,5-trifluorophenyl)butan-1-one fumarate] | 25.9 ± 3.91 nM |  |  |  |  |  |  |  |  |  | 
5 | N#CC1(C(=O)N2C[C@@H]3CCN(C(=O)C[C@H](N)Cc4cc(F)c(F)cc4F)[C@@H]3C2)CC1 [Compound 17, (R)-3-amino-1-((3aS,6aS)-5-(1-cyanocyclopropylcarbonyl)-hexahydropyrrolo[3,4-b]pyrrol-1(2H)-yl)-4-(2,4,5-trifluorophenyl)butan-1-one fumarate] | 11.5 nM |  |  |  |  |  |  |  |  |  | 
6 | CC(C)(C)C(=O)N1C[C@@H]2CCN(C(=O)C[C@H](N)Cc3cc(F)c(F)cc3F)[C@@H]2C1 [Compound 20, (R)-3-amino-1-((3aS,6aS)-5-(tertvaleryl)-hexahydropyrrolo[3,4-b]pyrrol-1(2H)-yl)-4-(2,4,5-trifluorophenyl)butan-1-one fumarate] | 23.2 ± 2.24 nM | 15900 ± 4720 nM | 2076 ngh/mL | 23 nM | 38.3% | 215 ± 44 mmol·min/L | 241 | 5550 ± 2520 nM | 907 | 20900 ± 5630 nM | half-life ([2]; male, SD, rat, plasma, po): 2.45 h; Cmax [2, 4]: 917 ng/mL; Tmax [2, 5]: 0.81 h
7 | CS(=O)(=O)c1cccc(C(=O)N2C[C@@H]3CCN(C(=O)C[C@H](N)Cc4cc(F)c(F)cc4F)[C@@H]3C2)c1.O=C(O)/C=C/C(=O)O [Compound 26, (R)-3-amino-1-((3aS,6aS)-5-(3-mesylbenzoyl)-hexahydropyrrolo[3,4-b]pyrrol-1(2H)-yl)-4-(2,4,5-trifluorophenyl)butan-1-one fumarate] | 2.61 ± 0.46 nM | 11300 ± 4020 nM |  | 2.6 nM |  |  | 1311 | 3450 ± 3470 nM | 6057 | 15800 ± 7650 nM | 
8 | N[C@@H](CC(=O)N1CCn2c(nnc2C(F)(F)F)C1)Cc1cc(F)c(F)cc1F [Sitagliptin, reference compound] |  |  | 1655 ngh/mL |  | 31.1% | 240 ± 24 mmol·min/L |  |  |  |  | Cmax [2]: 477 ng/mL; T1/2 [2]: 2.11 h; Tmax [2]: 0.44 h
